Reference: PMC7889231 (Journal of Enzyme Inhibition and Medicinal Chemistry, 2021)
Read-outs that look alike come from different tables or passages of the source.

What was measured:
[1] = test system: HepG-2, HCT-116, and MCF-7; assay: MTT anti-proliferative assay, ranges stated over several cell lines; assay type: cell-based; conditions: Homo sapiens
HepG-2 = assay: MTT anti-proliferative assay, HepG-2; assay type: cell-based, human; conditions: for IC50: Homo sapiens; for times of colchicine cytotoxic activity, HepG-2: ratio of IC50 to colchicine
tubulin = assay: In vitro tubulin polymerisation inhibition (turbidimetric, fluorescent plate reader); assay type: biochemical; conditions: mean of three experiments
Protocol: The inhibition assay on microtubule polymerisation was evaluated turbidimetrically using a fluorescent plate reader.
The effect of the synthesised compounds on tubulin polymerisation was assessed turbidimetrically using a fluorescent plate reader method. The complete procedure was depected in Supplementary data.

HCT-116 = assay: MTT anti-proliferative assay, HCT-116; assay type: cell-based, human; conditions: for IC50: Homo sapiens; for times of colchicine cytotoxic activity, HCT-116: ratio of IC50 to colchicine
MCF-7 = assay: MTT anti-proliferative assay, MCF-7; assay type: cell-based, human; conditions: for IC50: Homo sapiens
HepG-2 cells [2] = assay: Cell cycle analysis by flow cytometry; assay type: cell-based, human; conditions: HepG-2, 1.89 µM, 24 h
Protocol: The impact of the most promising compound 25 on cell cycle distribution was assessed. Such analysis gave a better insight into the effect of the synthesised compounds on cancer cell growth inhibition. HepG-2 cells were utilised in this test. The reported method described by Wand et al.[50] was followed.
The effect of the most promising compound 25 on cell cycle was evaluated using flowcytometer[50]^,[53]^,[54] as illustrated in Supplementary data.

HepG-2 cells [3] = assay: Annexin V-FITC/PI apoptosis assay; assay type: cell-based, human; conditions: HepG-2, 1.89 µM, 24 h
Protocol: Annexin V and PI double staining assay[51] was carried out to explore the proposed apoptotic effect of the synthesised compounds. Compound 25 as a representative example was tested against HepG-2 cells. In this test, HepG-2 cells were incubated with compound 25 at a concentration of 1.89 µM for 24 h.
The effect of compound 25 on apoptosis induction was analysed using Annexin V-FITC/PI apoptosis detection kit using flowcytometer[51]^,[55]^,[56] as illustrated in Supplementary data.

[4] = range over HepG-2, HCT-116 and MCF-7 and over the listed compounds, read-out: IC50 values ranging (all tested cell lines)
[5] = HepG2, MTT, mean ± SD of three experiments, read-out: IC50 HepG-2
[6] = HCT-116, MTT, mean ± SD of three experiments, read-out: IC50 HCT-116
[7] = MCF7, MTT, mean ± SD of three experiments, read-out: IC50 MCF-7
[8] = read-out: IC50 values ranging (all tested cell lines)
[9] = HCT-116, read-out: IC50 HCT-116
[10] = range over HCT-116 and MCF-7 and over the listed compounds, read-out: IC50 values ranging (HCT-116 and MCF-7)

Compound	IC50 [1, 4] [µM]	IC50 (HepG-2; [5]) [µM]	melting point [°C]	IC50 (tubulin) [µM]	IC50 (HCT-116; [6]) [µM]	IC50 (MCF-7; [7]) [µM]	other results
COc1ccc2nc(Cl)c(C3CC(c4ccc(Cl)cc4)=NN3c3ccccc3)cc2c1 (stereo not shown) [Compound 20, 2-Chloro-3-[3–(4-chlorophenyl)-1-phenyl-4,5-dihydro-1H-pyrazol-5-yl]-6-methoxyquinoline]	1.78 to 9.19	2.6 ± 0.1	145 to 146	0.0368	1.81 ± 0.1	4.51 ± 0.2	times of colchicine cytotoxic activity, HepG-2 (HepG-2): 5.15 times; times of colchicine cytotoxic activity, HCT-116 (HCT-116): 2.84 times
COc1ccc2nc(Cl)c(C3CC(c4cc(OC)c(OC)c(OC)c4)=NN3c3ccc([N+](=O)[O-])cc3[N+](=O)[O-])cc2c1 (stereo not shown) [Compound 25, 2-Chloro-3-[1–(2,4-dinitrophenyl)-3–(3,4,5-trimethoxyphenyl)-4,5-dihydro-1H-pyrazol-5-yl]-6-methoxyquinoline]	1.78 to 9.19	1.89 ± 0.2	135 to 136	0.0413	1.43 ± 0.1	4.21 ± 0.1	times of colchicine cytotoxic activity, HepG-2 (HepG-2): 3.91 times; effect on cell cycle (HepG-2 cells [2]): arrest the cell cycle at G2/M phase; Cell cycle distribution %Pre-G1 (HepG-2 cells [2]; control 2.57): 21.46%; Cell cycle distribution %G2-M (HepG-2 cells [2]; control 13.8): 30.17%; Cell cycle distribution %S (HepG-2 cells [2]; control 24.83): 28.95%; Cell cycle distribution %G0-G1 (HepG-2 cells [2]; control 61.37): 40.88%; apoptotic effect relative to control (HepG-2 cells [3]): thirteen times more than the control; Apoptosis Early (HepG-2 cells [3]; control 0.67): 7.66%; Apoptosis Late (HepG-2 cells [3]; control 0.72): 11.39%; Necrosis (HepG-2 cells [3]; control 1.18): 2.41%; apoptotic effect (early and late apoptosis) (HepG-2 cells [3]; control 1.39%): 19.05%; times of colchicine cytotoxic activity, HCT-116 (HCT-116): 6.51 times; times of colchicine cytotoxic activity, MCF-7 (MCF-7; ratio of IC50 to colchicine): 2.47 times
COc1ccc2nc(Cl)c(-c3cc(-c4ccc(Cl)cc4)nc(=S)[nH]3)cc2c1 [Compound 26, 6–(2-Chloro-6-methoxyquinolin-3-yl)-4–(4-chlorophenyl)pyrimidine-2(1H)-thione]	1.78 to 9.19	3.62 ± 0.1	155 to 156	0.0345	2.24 ± 0.2	5.55 ± 0.2	–
COc1ccc2nc(Cl)c(-c3cc(-c4cc(OC)c(OC)c(OC)c4)nc(=S)[nH]3)cc2c1 [Compound 28, 6–(2-Chloro-6-methoxyquinolin-3-yl)-4–(3,4,5-trimethoxyphenyl)pyrimidine-2(1H)-thione]	1.78 to 9.19	5.47 ± 0.2	141 to 142	0.0374	5.85 ± 0.3	7.34 ± 0.2	–
COc1ccc2nc(Cl)c(C3CC(c4ccc(N)cc4)=NN3c3ccc([N+](=O)[O-])cc3[N+](=O)[O-])cc2c1 (stereo not shown) [Compound 24, 4-[5–(2-Chloro-6-methoxyquinolin-3-yl)-1–(2,4-dinitrophenyl)-4,5-dihydro-1H-pyrazol-3-yl]aniline]	–	–	139 to 140	0.146	–	–	IC50 [1, 8]: 1.78 to 9.19 µM; IC50 (HepG-2; HepG2, read-out: IC50 HepG-2): 3.14 ± 0.1 µM; IC50 (HCT-116; [9]): 4.18 ± 0.2 µM; IC50 (MCF-7; MCF7, read-out: IC50 MCF-7): 4.97 ± 0.1 µM
COc1ccc2nc(Cl)c(C3CC(c4ccc(N)cc4)=NN3c3ccccc3)cc2c1 (stereo not shown) [Compound 21, 4-[5–(2-Chloro-6-methoxyquinolin-3-yl)-1-phenyl-4,5-dihydro-1H-pyrazol-3-yl]aniline]	1.78 to 9.19	7.32 ± 0.2	136 to 137	0.00911	8.91 ± 0.3	9.19 ± 0.3	–
COc1ccc2nc(Cl)c(C3CC(c4cc(OC)c(OC)c(OC)c4)=NN3c3ccccc3)cc2c1 (stereo not shown) [Compound 22, 2-Chloro-6-methoxy-3-[1-phenyl-3–(3,4,5-trimethoxyphenyl)-4,5-dihydro-1H-pyrazol-5-yl]quinoline]	1.78 to 9.19	4.76 ± 0.2	136 to 137	0.0191	3.04 ± 0.3	6.45 ± 0.2	–
COc1ccc2nc(Cl)c(-c3cc(-c4ccc(Cl)cc4)nc(=O)[nH]3)cc2c1 [Compound 32, 6–(2-Chloro-6-methoxyquinolin-3-yl)-4–(4-chlorophenyl)pyrimidin-2(1H)-one]	–	8.16 ± 0.2	180 to 181	0.0105	6.48 ± 0.2	9.89 ± 0.4	IC50 [1, 10]: 6.48 to 10.3 µM
COc1ccc2nc(Cl)c(C3CC(c4ccc(Cl)cc4)=NN3c3ccc([N+](=O)[O-])cc3[N+](=O)[O-])cc2c1 (stereo not shown) [Compound 23, 2-Chloro-3-[3–(4-chlorophenyl)-1–(2,4-dinitrophenyl)-4,5-dihydro-1H-pyrazol-5-yl]-6-methoxyquinoline]	–	–	143 to 144	–	–	–	IC50 [1, 8]: 1.78 to 9.19 µM; IC50 (HepG-2; HepG2, read-out: IC50 HepG-2): 2.64 ± 0.1 µM; IC50 (HCT-116; [9]): 1.78 ± 0.1 µM; IC50 (MCF-7; MCF7, read-out: IC50 MCF-7): 4.48 ± 0.1 µM
COc1ccc2nc(Cl)c(C3CC(c4ccc(Cl)cc4)=NN3C(N)=S)cc2c1 (stereo not shown) [Compound 14, 5–(2-Chloro-6-methoxyquinolin-3-yl)-3–(4-chlorophenyl)-4,5-dihydro-1H-pyrazole-1-carbothioamide]	–	8.92 ± 0.4	136 to 137	0.0501	7.62 ± 0.4	10 ± 0.4	IC50 [1, 10]: 6.48 to 10.3 µM
COc1ccc2nc(Cl)c(C3CC(c4ccc(N)cc4)=NN3C(N)=S)cc2c1 (stereo not shown) [Compound 15, 3–(4-Aminophenyl)-5–(2-chloro-6-methoxyquinolin-3-yl)-4,5-dihydro-1H-pyrazole-1-carbothioamide]	10.2 to 17.6	10.2 ± 0.4	123 to 124	–	11.6 ± 0.9	13.6 ± 0.7	–
COc1ccc2nc(Cl)c(-c3cc(-c4ccc(N)cc4)nc(=O)[nH]3)cc2c1 [Compound 33, 4–(4-Aminophenyl)-6–(2-chloro-6-methoxyquinolin-3-yl)pyrimidin-2(1H)-one]	–	9.37 ± 0.4	171 to 172	0.0472	8.5 ± 0.2	10.3 ± 0.5	IC50 [1, 10]: 6.48 to 10.3 µM
COc1ccc2nc(Cl)c(C3CC(c4ccc(Cl)cc4)=NN3)cc2c1 (stereo not shown) [Compound 8, 2-Chloro-3-[3–(4-chlorophenyl)-4,5-dihydro-1H-pyrazol-5-yl]-6-methoxyquinoline]	22.4 to 45.5	30.9 ± 1.2	118 to 119	–	22.4 ± 1.1	33.5 ± 2.4	–
